How the values were obtained:
[1] = system: Mycobacterium tuberculosis Erdman (autoluminescent); experiment: total FIC50 (Loewe) at 50% inhibition, three-drug combination (log2); higher = more antagonistic
Description: (§1)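 DiaMOND equipotent three-drug combination dose responses (10 doses, 1.5- or 2-fold spacing, centred on IC90) against autoluminescent M. tuberculosis Erdman in 8 in vitro models. Read-out is OD600, or luminescence for the intracellular and dormancy models, normalised to untreated wells. Hill-fit Einf, AUC25 and GRinf are potency metrics; FIC50 and FIC90 are total Loewe fractional inhibitory concentrations as log2 (negative = synergy).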

[2] = system: Mycobacterium tuberculosis Erdman (autoluminescent); experiment: total FIC90 (Loewe) at 90% inhibition, three-drug combination (log2); higher = more antagonistic
Description: as §1

[3] = system: Mycobacterium tuberculosis Erdman (autoluminescent); experiment: Einf, fitted maximum growth inhibition of three-drug combination (fraction); higher = stronger maximal inhibition
Description: as §1

[4] = system: Mycobacterium tuberculosis Erdman (autoluminescent); experiment: AUC25, normalised area under dose response up to IC25 (three-drug combination) (fraction (0-1)); higher = more potent at low dose
Description: as §1

[5] = system: Mycobacterium tuberculosis Erdman (autoluminescent); experiment: GRinf, maximum normalised growth rate inhibition (three-drug combination) (unitless (-1 to 1)); higher = less effect (negative = killing)
Description: as §1

[6] = in vitro model: acidic pH 5.7, time point: constant (~7 days, model-specific)
[7] = in vitro model: acidic pH 5.7, time point: terminal (~4-5 doublings, model-specific)
[8] = in vitro model: butyrate, time point: constant (~7 days, model-specific)
[9] = in vitro model: butyrate, time point: terminal (~4-5 doublings, model-specific)
[10] = in vitro model: cholesterol 0.05 mM, time point: terminal (~4-5 doublings, model-specific)
[11] = in vitro model: cholesterol-high 0.2 mM, time point: constant (~7 days, model-specific)
[12] = in vitro model: cholesterol-high 0.2 mM, time point: terminal (~4-5 doublings, model-specific)
[13] = in vitro model: dormancy (butyrate + nitrate, low O2), time point: constant (~7 days, model-specific)
[14] = in vitro model: dormancy (butyrate + nitrate, low O2), time point: terminal (~4-5 doublings, model-specific)
[15] = in vitro model: standard 7H9 glycerol, time point: constant = terminal
[16] = in vitro model: valerate, time point: constant (~7 days, model-specific)
[17] = in vitro model: valerate, time point: terminal (~4-5 doublings, model-specific)
[18] = in vitro model: intracellular J774, time point: constant = terminal
[19] = in vitro model: cholesterol 0.05 mM, time point: constant (~7 days, model-specific)

O=[N+]([O-])c1cn2c(n1)OC[C@@H](OCc1ccc(OC(F)(F)F)cc1)C2 [pretomanid] + NC(=O)c1cnccn1 [pyrazinamide] + CO[C@H]1/C=C/O[C@@]2(C)Oc3c(C)c(O)c4c(O)c(c(/C=N/N5CCN(C6CCCC6)CC5)c(O)c4c3C2=O)NC(=O)/C(C)=C\C=C\[C@H](C)[C@H](O)[C@@H](C)[C@@H](O)[C@@H](C)[C@H](OC(C)=O)[C@@H]1C [rifapentine]
total FIC50 [1, 6]: -0.141 | total FIC50 [1, 7]: -0.0208 | total FIC50 [1, 8]: 0.0451 | total FIC50 [1, 9]: 0.0568 | total FIC50 [1, 10]: 1.28 | total FIC50 [1, 11]: 0.553 | total FIC50 [1, 12]: 1.12 | total FIC50 [1, 13]: 0.097 | total FIC50 [1, 14]: -0.593 | total FIC50 [1, 15]: -0.0175 | total FIC50 [1, 16]: 0.0684 | total FIC50 [1, 17]: 0.378 | total FIC90 [2, 7]: -0.284 | total FIC90 [2, 8]: -0.0718 | total FIC90 [2, 9]: 0.587 | total FIC90 [2, 12]: 0.566 | total FIC90 [2, 13]: 0.142 | total FIC90 [2, 14]: 0.838 | total FIC90 [2, 18]: 0.00169 | total FIC90 [2, 17]: -0.054 | Einf [3, 6]: 0.9 | Einf [3, 7]: 0.992 | Einf [3, 8]: 0.889 | Einf [3, 9]: 0.956 | Einf [3, 19]: 0.768 | Einf [3, 10]: 0.936 | Einf [3, 11]: 0.919 | Einf [3, 12]: 0.999 | Einf [3, 13]: 0.881 | Einf [3, 14]: 0.995 | Einf [3, 18]: 0.98 | Einf [3, 15]: 0.893 | Einf [3, 16]: 0.855 | Einf [3, 17]: 0.918 | AUC25 [4, 6]: 0.0839 | AUC25 [4, 7]: 0.0799 | AUC25 [4, 8]: 0.101 | AUC25 [4, 9]: 0.0909 | AUC25 [4, 19]: 0.118 | AUC25 [4, 10]: 0.103 | AUC25 [4, 11]: 0.0849 | AUC25 [4, 12]: 0.0594 | AUC25 [4, 13]: 0.0875 | AUC25 [4, 14]: 0.0996 | AUC25 [4, 15]: 0.0581 | AUC25 [4, 16]: 0.0881 | AUC25 [4, 17]: 0.0574 | GRinf [5, 6]: -0.227 | GRinf [5, 7]: -0.234 | GRinf [5, 8]: 0.102 | GRinf [5, 9]: 0.0745 | GRinf [5, 19]: -0.296 | GRinf [5, 10]: -0.415 | GRinf [5, 11]: -0.211 | GRinf [5, 12]: -0.626 | GRinf [5, 13]: 0.197 | GRinf [5, 14]: -0.152 | GRinf [5, 18]: -0.184 | GRinf [5, 15]: 0.139 | GRinf [5, 16]: 0.0565 | GRinf [5, 17]: 0.0492

O=[N+]([O-])c1cn2c(n1)OC[C@@H](OCc1ccc(OC(F)(F)F)cc1)C2 [pretomanid] + NC(=O)c1cnccn1 [pyrazinamide] + CO[C@H]1/C=C/O[C@@]2(C)Oc3c(C)c(O)c4c(O)c(c(/C=N/N5CCN(C)CC5)c(O)c4c3C2=O)NC(=O)/C(C)=C\C=C\[C@H](C)[C@H](O)[C@@H](C)[C@@H](O)[C@@H](C)[C@H](OC(C)=O)[C@@H]1C [rifampicin]
total FIC50 [1, 6]: 0.112 | total FIC50 [1, 7]: 0.156 | total FIC50 [1, 8]: -0.0322 | total FIC50 [1, 9]: -0.158 | total FIC50 [1, 10]: 1.25 | total FIC50 [1, 11]: 0.75 | total FIC50 [1, 12]: 1.36 | total FIC50 [1, 13]: -0.0806 | total FIC50 [1, 14]: -0.485 | total FIC50 [1, 15]: -0.426 | total FIC50 [1, 16]: 0.491 | total FIC50 [1, 17]: 0.477 | total FIC90 [2, 7]: -0.637 | total FIC90 [2, 9]: 0.429 | total FIC90 [2, 12]: 0.673 | total FIC90 [2, 13]: -0.525 | total FIC90 [2, 14]: -0.0518 | total FIC90 [2, 18]: -0.273 | total FIC90 [2, 17]: -0.0725 | Einf [3, 6]: 0.907 | Einf [3, 7]: 0.988 | Einf [3, 8]: 0.875 | Einf [3, 9]: 0.943 | Einf [3, 19]: 0.694 | Einf [3, 10]: 0.895 | Einf [3, 11]: 0.867 | Einf [3, 12]: 0.997 | Einf [3, 13]: 0.863 | Einf [3, 14]: 0.983 | Einf [3, 18]: 0.981 | Einf [3, 15]: 0.897 | Einf [3, 16]: 0.854 | Einf [3, 17]: 0.933 | AUC25 [4, 6]: 0.0685 | AUC25 [4, 7]: 0.0533 | AUC25 [4, 8]: 0.1 | AUC25 [4, 9]: 0.098 | AUC25 [4, 19]: 0.109 | AUC25 [4, 10]: 0.0891 | AUC25 [4, 11]: 0.071 | AUC25 [4, 12]: 0.0574 | AUC25 [4, 13]: 0.0775 | AUC25 [4, 14]: 0.0697 | AUC25 [4, 15]: 0.0634 | AUC25 [4, 16]: 0.0616 | AUC25 [4, 17]: 0.0376 | GRinf [5, 6]: -0.202 | GRinf [5, 7]: -0.228 | GRinf [5, 8]: 0.153 | GRinf [5, 9]: 0.0978 | GRinf [5, 19]: -0.0437 | GRinf [5, 10]: -0.0945 | GRinf [5, 11]: -0.142 | GRinf [5, 12]: -0.5 | GRinf [5, 13]: 0.209 | GRinf [5, 14]: -0.11 | GRinf [5, 18]: -0.237 | GRinf [5, 15]: 0.147 | GRinf [5, 16]: 0.084 | GRinf [5, 17]: 0.0442

NC(=O)c1cnccn1 [pyrazinamide] + CO[C@H]1/C=C/O[C@@]2(C)Oc3c(C)c(O)c4c(O)c(c(/C=N/N5CCN(C6CCCC6)CC5)c(O)c4c3C2=O)NC(=O)/C(C)=C\C=C\[C@H](C)[C@H](O)[C@@H](C)[C@@H](O)[C@@H](C)[C@H](OC(C)=O)[C@@H]1C [rifapentine] + CO[C@H]1/C=C/O[C@@]2(C)Oc3c(C)c(O)c4c(O)c(c(/C=N/N5CCN(C)CC5)c(O)c4c3C2=O)NC(=O)/C(C)=C\C=C\[C@H](C)[C@H](O)[C@@H](C)[C@@H](O)[C@@H](C)[C@H](OC(C)=O)[C@@H]1C [rifampicin]
total FIC50 [1, 6]: -0.178 | total FIC50 [1, 7]: -0.202 | total FIC50 [1, 8]: 0.0365 | total FIC50 [1, 9]: 0.198 | total FIC50 [1, 10]: 0.707 | total FIC50 [1, 11]: 0.97 | total FIC50 [1, 12]: 1.26 | total FIC50 [1, 13]: -0.0928 | total FIC50 [1, 14]: -0.147 | total FIC50 [1, 15]: -0.259 | total FIC50 [1, 16]: 0.198 | total FIC50 [1, 17]: 0.142 | total FIC90 [2, 7]: -1.03 | total FIC90 [2, 8]: 1.12 | total FIC90 [2, 9]: 0.732 | total FIC90 [2, 12]: 1.04 | total FIC90 [2, 13]: -0.329 | total FIC90 [2, 14]: -0.16 | total FIC90 [2, 18]: -0.0544 | total FIC90 [2, 17]: -0.0108 | Einf [3, 6]: 0.896 | Einf [3, 7]: 0.979 | Einf [3, 8]: 0.881 | Einf [3, 9]: 0.952 | Einf [3, 19]: 0.629 | Einf [3, 10]: 0.89 | Einf [3, 11]: 0.925 | Einf [3, 12]: 1 | Einf [3, 13]: 0.871 | Einf [3, 14]: 0.977 | Einf [3, 18]: 0.97 | Einf [3, 15]: 0.884 | Einf [3, 16]: 0.833 | Einf [3, 17]: 0.925 | AUC25 [4, 6]: 0.0803 | AUC25 [4, 7]: 0.0647 | AUC25 [4, 8]: 0.117 | AUC25 [4, 9]: 0.103 | AUC25 [4, 19]: 0.115 | AUC25 [4, 10]: 0.0851 | AUC25 [4, 11]: 0.0773 | AUC25 [4, 12]: 0.0817 | AUC25 [4, 13]: 0.083 | AUC25 [4, 14]: 0.0472 | AUC25 [4, 15]: 0.0549 | AUC25 [4, 16]: 0.0552 | AUC25 [4, 17]: 0.0295 | GRinf [5, 6]: -0.145 | GRinf [5, 7]: -0.174 | GRinf [5, 8]: 0.12 | GRinf [5, 9]: 0.104 | GRinf [5, 19]: 0.0861 | GRinf [5, 10]: -0.108 | GRinf [5, 11]: -0.227 | GRinf [5, 12]: -0.793 | GRinf [5, 13]: 0.235 | GRinf [5, 14]: -0.125 | GRinf [5, 18]: -0.213 | GRinf [5, 15]: 0.17 | GRinf [5, 16]: 0.0781 | GRinf [5, 17]: 0.0607

— the supplement of paper PMC8617591
